The values below come from patent publication US12325696B2, “Indazole derivative, preparation method therefor, and pharmaceutical application thereof” (JIANGSU HENGRUI MEDICINE CO., LTD., priority 2019, dated 2025).

SMILES strings stand for the structures.

The target in data set [1] is estrogen receptor ERα Y537S mutant-type (Homo sapiens (Human), UniProt P03372, Y537S). Nature of the data set: Covalent modification of ERα Y537S mutant-type LBD by high-resolution mass spectrometry. In kind it is binding. The settings on record: after 24 hours; 2 μM protein, 10 μM compound, 4° C. As to the method: (§1) The ligand binding domain (LBD, aa296-554) of estrogen receptor ERα wild-type and ERα Y537S mutant-type was expressed in E. coli and purified. 2 μM ERα wild-type or ERα Y537S mutant-type protein and 10 μM compound were added to a buffer solution containing 50 mM Tris-HCl, pH7.5, 150 mM NaCl, 1 mM TCEP and 5% glycerol and mixed well. The solution was incubated at 4° C. for 24 hours, followed by high-resolution mass spectrometry (Agilent Technologies, Agilent Q-tof 6530) assay. Alternatively, 1 μM ERα wild-type or ERα Y537S mutant-type protein and 3 μM compound were added to a buffer solution containing 50 mM Tris-HCl, pH7.5, 150 mM NaCl, 1 mM TCEP and 5% glycerol and mixed well. The solution was incubated at 37° C. for 15 minutes, followed by high-resolution mass spectrometry assay. In the mass spectrometry assay results, the peak whose molecular weight is the sum of the molecular weight of the protein and compound is the product of covalent modification. The percentage of covalent modification is obtained by calculating the ratio of […] to total protein.
estrogen receptor ERα Y537S mutant-type, sequence (P03372 296-554 Y537S): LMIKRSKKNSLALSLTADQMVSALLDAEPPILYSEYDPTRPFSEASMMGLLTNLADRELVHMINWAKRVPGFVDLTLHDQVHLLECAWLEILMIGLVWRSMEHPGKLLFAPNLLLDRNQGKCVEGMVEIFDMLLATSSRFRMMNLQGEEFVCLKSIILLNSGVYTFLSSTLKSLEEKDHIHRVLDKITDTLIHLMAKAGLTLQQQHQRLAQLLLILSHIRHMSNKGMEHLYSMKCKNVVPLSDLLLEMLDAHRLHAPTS

Data set [2] has as its system estrogen receptor reporter gene. The data set is described as follows: Inhibition of estrogen receptor reporter gene activity (ERE-luc luciferase) in MCF7/ERE-luc cells. In kind it is cell-based. The settings on record: Homo sapiens, 0.1 nM β-estradiol, 20 hours, read-out: IC50 of inhibitory activity on the activity of the estrogen receptor reporter gene. Put shortly:
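MCF7 cells stably carrying ERE-driven luciferase, in charcoal-stripped serum medium, were stimulated with 0.1 nM β-estradiol plus compound (nine 10-fold dilutions from 10 μM) for 20 h at 37° C. ONE-Glo luminescence was read, and IC50 was fitted from signal versus log concentration.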
(In general: Reporter assays use an easily measured gene product as a stand-in for the process of interest.)

The subject of a further data set is MCF7 D538G. The data set is described as follows: Inhibition of proliferation of MCF7 cell expressing ERα D538G mutant. The class given is cell-based. To be noted: Homo sapiens, 144 hours; for Emax: read-out: Maximum inhibition. Put shortly:
(§2)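 MCF7 cells stably expressing lentiviral ERα Y537S or D538G mutants, seeded 3,000 cells/well, then exposed in 2% FBS MEM to nine 4-fold dilutions from 100 nM for 144 h at 37° C. Viability read by CellTiter-Glo luminescence; IC50 fitted from concentration-response.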

Another data set relates to MCF7 ERαY537S. Nature of the data set: Inhibition of proliferation of MCF7 cell expressing ERα Y537S mutant. To be noted: Homo sapiens, 144 hours; for Emax: read-out: Maximum inhibition. In kind it is cell-based. The method, boiled down:
as §2

For data set [3], the target named is estrogen receptor ERα wild-type (Homo sapiens (Human), UniProt P03372). Nature of the data set: Covalent modification of ERα wild-type LBD by high-resolution mass spectrometry. To be noted: after 24 hours; 2 μM protein, 10 μM compound, 4° C. The class given is binding. The protocol: as §1
estrogen receptor ERα wild-type, sequence (P03372 296-554): as the sequence (P03372 296-554 Y537S) above, with S242Y counted along it
The subject of another data set is MCF7 cell. Nature of the data set: Inhibition of proliferation of MCF7 cell (CellTiter-Glo, 144 hours). In kind it is cell-based. The settings on record: Homo sapiens; for IC50: MCF7, CellTiter-Glo, read-out: IC50 of the inhibitory effect on the proliferation of MCF7 cell; for Emax: MCF7 cell proliferation, read-out: Maximum inhibition. The method, boiled down:
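Seeded overnight, MCF7 cells were treated in MEM with 2% FBS with nine 4-fold dilutions from 100 nM (0.5% DMSO blank). Incubation 144 h at 37° C, 5% CO2. CellTiter-Glo luminescence read; IC50 from signal versus log concentration.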
On the technique in general: Cellular ATP, detected with luciferase, serves as a proxy for viable cell number.

A further data set addresses Nav1.5 ion channel (Homo sapiens (Human), UniProt Q14524). Nature of the data set: Manual patch clamp inhibition of Nav1.5 current in HEK293 cell. The class given is cell-based. To be noted: whole-cell patch clamp, read-out: IC50 on inhibiting the Nav1.5 channel activity. As to the method:
The purpose of the experiment is to investigate the effect of the compounds on Nav1.5 ion channel in an […] experiment. Nav1.5 ion channel is stably expressed on HEK293 cell. After the Nav1.5 current becomes stable, the Nav1.5 currents before and after the administration of the compound are compared so as to obtain the effect of the compound on the Nav1.5 ion channel.
Extracellular fluid: NaCl, 137 mM; KCl, 4 mM; CaCl2), 1.8 mM; MgCl2, 1 mM; HEPES, 10; glucose, 10 mM; pH 7.4 (NaOH titration).
Intracellular fluid: aspartic acid, 140 mM; MgCl2, 2 mM; EGTA, 11 mM; HEPES, 10 mM; pH 7.2 (CsOH titration).
The test compound was dissolved in dimethyl sulfoxide (DMSO) at a stock concentration of 9 mM. The stock solution of the test compound was dissolved in the extracellular fluid on the day of the test and formulated into the required concentration.
1) The compound was formulated into solutions with specified concentrations. The solutions were added to the pipelines respectively in order from high to low concentration, and the pipelines were marked.
2) The cell was transferred to the perfusion tank, and perfused with the extracellular fluid. The intracellular fluid was stored in small batches in a −80° C. refrigerator, and melted on the day of the experiment. The electrode was pulled with PC-10 (Narishige, Japan). Recording was carried out with the whole-cell patch clamp, and the noise was filtered at one-fifth of the sampling frequency.
3) All compounds were perfused with a perfusion system that uses its own gravity. Each concentration was tested in at least two cells. After the current stabilized (or after 5 minutes), the blocking effect of the compound was calculated by comparing the changes in the current before and after the administration of the compound.
The cell was clamped at −80 mV. The cell was depolarized to Vhalf with a square wave lasting 8 milliseconds, hyperpolarized to −120 mV with a square wave lasting 20 milliseconds, and depolarized to −10 mV with a square wave lasting 20 milliseconds to obtain the Nav1.5 current. This procedure was repeated every 15 seconds. The maximum current caused by the −10 mV square wave was measured. After the current became stable, the test compound was perfused. After the response became stable, the blocking intensity was calculated.
The data was stored in the computer system for analysis. Data collection and analysis were carried out by pCLAMP 10 (Molecular Devices, Union City, CA). Stable current means that the absolute average value of the peak current of four consecutive scans exceeds 200 pA and the CV value is less than 10%, or the average value of the peak current of four consecutive scans is between 200 pA and 50 pA and the CV value is less than 30%. The average value of the last four current peaks after the current stabilized was used to calculate the effect of the compound at the concentration.
A general note: In patch-clamp work, channel activity is measured electrically.

Nav1.5 ion channel, sequence (Q14524 whole entry): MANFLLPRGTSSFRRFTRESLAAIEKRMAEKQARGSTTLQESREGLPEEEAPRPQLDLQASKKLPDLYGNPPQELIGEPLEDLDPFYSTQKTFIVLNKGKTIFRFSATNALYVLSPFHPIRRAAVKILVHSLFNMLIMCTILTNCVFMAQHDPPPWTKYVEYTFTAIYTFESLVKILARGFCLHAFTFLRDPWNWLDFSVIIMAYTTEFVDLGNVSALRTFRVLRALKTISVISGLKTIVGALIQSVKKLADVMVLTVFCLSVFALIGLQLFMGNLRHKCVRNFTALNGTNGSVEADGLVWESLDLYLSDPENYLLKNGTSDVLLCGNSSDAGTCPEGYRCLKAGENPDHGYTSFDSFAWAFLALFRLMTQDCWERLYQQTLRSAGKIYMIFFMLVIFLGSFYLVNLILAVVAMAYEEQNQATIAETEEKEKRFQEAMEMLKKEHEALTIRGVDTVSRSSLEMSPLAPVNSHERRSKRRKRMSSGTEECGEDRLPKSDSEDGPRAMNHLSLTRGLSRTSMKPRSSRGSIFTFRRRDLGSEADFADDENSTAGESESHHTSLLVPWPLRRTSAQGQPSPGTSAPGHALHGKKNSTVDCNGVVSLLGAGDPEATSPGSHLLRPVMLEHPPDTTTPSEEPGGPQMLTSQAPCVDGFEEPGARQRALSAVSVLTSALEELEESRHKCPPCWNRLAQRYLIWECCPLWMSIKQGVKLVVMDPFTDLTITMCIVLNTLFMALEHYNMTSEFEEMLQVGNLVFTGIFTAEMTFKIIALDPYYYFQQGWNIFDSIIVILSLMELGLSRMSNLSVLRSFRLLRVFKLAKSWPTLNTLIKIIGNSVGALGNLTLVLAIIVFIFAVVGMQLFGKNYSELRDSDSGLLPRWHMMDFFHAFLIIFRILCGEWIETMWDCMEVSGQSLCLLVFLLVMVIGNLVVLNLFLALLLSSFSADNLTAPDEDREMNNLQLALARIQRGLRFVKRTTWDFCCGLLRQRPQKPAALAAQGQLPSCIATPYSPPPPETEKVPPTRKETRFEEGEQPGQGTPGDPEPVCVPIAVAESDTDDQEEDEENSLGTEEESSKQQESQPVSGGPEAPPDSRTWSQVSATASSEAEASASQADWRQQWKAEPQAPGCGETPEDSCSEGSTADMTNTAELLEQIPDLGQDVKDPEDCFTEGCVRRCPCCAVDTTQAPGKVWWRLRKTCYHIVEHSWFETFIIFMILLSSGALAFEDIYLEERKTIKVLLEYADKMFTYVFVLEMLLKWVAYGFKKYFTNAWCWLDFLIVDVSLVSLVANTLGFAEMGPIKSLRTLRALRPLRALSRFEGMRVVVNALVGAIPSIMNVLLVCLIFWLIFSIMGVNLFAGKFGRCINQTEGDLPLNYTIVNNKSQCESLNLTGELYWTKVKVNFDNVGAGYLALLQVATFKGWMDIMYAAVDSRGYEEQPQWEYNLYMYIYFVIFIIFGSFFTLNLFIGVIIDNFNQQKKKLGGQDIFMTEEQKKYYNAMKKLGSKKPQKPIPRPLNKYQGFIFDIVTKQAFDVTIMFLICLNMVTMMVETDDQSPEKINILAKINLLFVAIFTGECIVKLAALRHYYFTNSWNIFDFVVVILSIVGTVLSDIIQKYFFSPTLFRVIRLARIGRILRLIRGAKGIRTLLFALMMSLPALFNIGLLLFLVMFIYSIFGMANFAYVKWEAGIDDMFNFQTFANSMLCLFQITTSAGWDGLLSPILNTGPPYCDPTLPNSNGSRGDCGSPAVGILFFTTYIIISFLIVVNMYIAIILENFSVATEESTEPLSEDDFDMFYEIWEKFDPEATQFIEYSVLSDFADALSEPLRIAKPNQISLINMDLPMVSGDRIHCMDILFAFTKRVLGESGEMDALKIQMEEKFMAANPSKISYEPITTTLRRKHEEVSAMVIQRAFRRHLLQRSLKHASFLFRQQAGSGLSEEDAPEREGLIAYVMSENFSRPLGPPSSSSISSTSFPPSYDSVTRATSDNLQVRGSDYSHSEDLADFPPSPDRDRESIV

As for `CN(C)C(=O)/C=C/CN1CCC[C@@H](Oc2ccc(/C(=C(/CC(F)(F)F)c3ccc(C(F)(F)F)cc3)c3ccc4[nH]nc(F)c4c3)cn2)C1` [Example 22, (E)-N,N-Dimethyl-4-((R)-3-((5-((Z)-4,4,4-trifluoro-1-(3-fluoro-1H-indazol-5-yl)-2-(4-(trifluoromethyl)phenyl)but-1-en-1-yl)pyridin-2-yl)oxy)piperidin-1-yl)but-2-enamide], in data set [1], the “Covalent modification effect on the estrogen receptor ERα Y537S mutant-type” value came to 100%. Moreover, the IC50 in data set [2] is 24 nM; with MCF7 D538G, 15 nM; in the data set with MCF7 ERαY537S, 15 nM; in the data set on MCF7 cell it was 4 nM. For the same molecule, the Emax in the data set with MCF7 D538G was determined as 93%; in the data set on MCF7 ERαY537S, 97%; in the data set on MCF7 cell, 103%. In data set [3], the “Covalent modification effect on the estrogen receptor ERα wild-type” value came to 95%.

Consider `CN(C)C(=O)/C=C/CN1CCC[C@@H](Oc2ccc(/C(=C(/CC(F)(F)F)c3ccc(S(C)(=O)=O)cc3)c3ccc4[nH]nc(F)c4c3)cn2)C1` [Example 23, (E)-N,N-Dimethyl-4-((R)-3-((5-((Z)-4,4,4-trifluoro-1-(3-fluoro-1H-indazol-5-yl)-2-(4-(methylsulfonyl)phenyl)but-1-en-1-yl)pyridin-2-yl)oxy)piperidin-1-yl)but-2-enamide], for which the “Covalent modification effect on the estrogen receptor ERα Y537S mutant-type” value in data set [1] was 99%. The IC50 is 13 nM in data set [2], 7 nM with MCF7 D538G, 5 nM in the data set with MCF7 ERαY537S and 1 nM in the data set with MCF7 cell. Further, the Emax with MCF7 D538G amounted to 101%; in the data set on MCF7 ERαY537S it was 94%; in the data set with MCF7 cell it was 97%. Moreover, in data set [3], the “Covalent modification effect on the estrogen receptor ERα wild-type” value was 95%.

Consider `CN(C)C(=O)/C=C/CN1CCC[C@@H](Oc2ccc(/C(=C(/CC(F)(F)F)c3ccc(C#N)cc3)c3ccc4[nH]nc(F)c4c3)cn2)C1` [Example 24, (E)-4-((R)-3-((5-((Z)-2-(4-Cyanophenyl)-4,4,4-trifluoro-1-(3-fluoro-1H-indazol-5-yl)but-1-en-1-yl)pyridin-2-yl)oxy)piperidin-1-yl)-N,N-dimethylbut-2-enamide], for which, in data set [1], the “Covalent modification effect on the estrogen receptor ERα Y537S mutant-type” value worked out at 99%. Further, the IC50 in data set [2] is 9 nM; in the data set on MCF7 D538G, 8 nM; with MCF7 ERαY537S, 8 nM; with MCF7 cell, 1 nM. The Emax in the data set on MCF7 D538G was 94%; in the data set with MCF7 ERαY537S, 102%; with MCF7 cell it was 98%. In data set [3], the “Covalent modification effect on the estrogen receptor ERα wild-type” value is reported as 90%.

For `CN(C)C(=O)/C=C/CN1CCC[C@@H](Nc2ccc(/C(=C(/CC(F)(F)F)c3ccccc3)c3ccc4[nH]nc(F)c4c3)cn2)C1` [Example 31, (E)-N,N-Dimethyl-4-((R)-3-((5-((Z)-4,4,4-trifluoro-1-(3-fluoro-1H-indazol-5-yl)-2-phenylbut-1-en-1-yl)pyridin-2-yl)amino)piperidin-1-yl)but-2-enamide], the “Covalent modification effect on the estrogen receptor ERα Y537S mutant-type” value in data set [1] amounted to 83%. Further, the IC50 in data set [2] turned out to be 6 nM; in the data set with MCF7 D538G it was 2 nM; with MCF7 ERαY537S, 3 nM; with MCF7 cell it was 0.7 nM. Moreover, the Emax is 101% in the data set with MCF7 D538G, 105% with MCF7 ERαY537S and 97% in the data set with MCF7 cell. The “Covalent modification effect on the estrogen receptor ERα wild-type” value in data set [3] is recorded as 80%.

Take `O=C(/C=C/CN1CCC[C@@H](Nc2ccc(/C(=C(/CC(F)(F)F)c3ccccc3)c3ccc4[nH]nc(F)c4c3)cn2)C1)N1CCOCC1` [Example 32, (E)-1-Morpholino-4-((R)-3-((5-((Z)-4,4,4-trifluoro-1-(3-fluoro-1H-indazol-5-yl)-2-phenylbut-1-en-1-yl)pyridin-2-yl)amino)piperidin-1-yl)but-2-en-1-one]: the “Covalent modification effect on the estrogen receptor ERα Y537S mutant-type” value in data set [1] is given as 95%. Further, the IC50 came out at 28 nM in data set [2], 11 nM with MCF7 D538G, 19 nM in the data set with MCF7 ERαY537S and 5 nM in the data set with MCF7 cell. Moreover, the Emax came to 95% with MCF7 D538G, 84% in the data set with MCF7 ERαY537S and 100% with MCF7 cell. Also, the “Covalent modification effect on the estrogen receptor ERα wild-type” value in data set [3] was determined as 94%.

With `O=C(/C=C/CN[C@H]1CCCN(c2ccc(/C(=C(/CC(F)(F)F)c3ccccc3)c3ccc4[nH]nc(F)c4c3)cn2)C1)N1CCOCC1` [Example 38, (E)-1-Morpholino-4-(((S)-1-(5-((Z)-4,4,4-trifluoro-1-(3-fluoro-1H-indazol-5-yl)-2-phenylbut-1-en-1-yl)pyridin-2-yl)piperidin-3-yl)amino)but-2-en-1-one], in data set [1], the “Covalent modification effect on the estrogen receptor ERα Y537S mutant-type” value stood at 96%. Also, the IC50 amounted to 5 nM in data set [2], 2 nM in the data set with MCF7 D538G, 4 nM in the data set on MCF7 ERαY537S and 0.8 nM in the data set with MCF7 cell. In addition, the Emax with MCF7 D538G is 108%; in the data set on MCF7 ERαY537S, 102%; in the data set on MCF7 cell, 96%. The “Covalent modification effect on the estrogen receptor ERα wild-type” value in data set [3] turned out to be 95%.

Consider `O=C(/C=C/CNCCOc1ccc(/C(=C(/CC(F)(F)F)c2ccccc2)c2ccc3[nH]nc(F)c3c2)cn1)N1CCOCC1` [Example 43, (E)-1-Morpholino-4-((2-((5-((Z)-4,4,4-trifluoro-1-(3-fluoro-1H-indazol-5-yl)-2-phenylbut-1-en-1-yl)pyridin-2-yl)oxy)ethyl)amino)but-2-en-1-one, reference compound], for which the IC50 at Nav1.5 ion channel amounted to 2700 nM.
